These results are taken from ChEMBL document CHEMBL1153656, “Synthesis of homochiral potassium channel openers: role of the benzopyranyl 3-hydroxyl group in cromakalim and pyridine N-oxides in determining the biological activities of enantiomers” (Bioorg Med Chem Lett, 1992).

The species named for the first assay is Rattus norvegicus. Description: The concentration of test substance producing half maximal reduction of the contraction evoked by 20 mM KCI in rat hepatic portal veins.
Details: not given
The format is functional.
For the compound `CC1(C)Oc2ccc(C#N)cc2[C@H](N2CCCC2=O)[C@H]1O` (single isomer, unassigned) [(-)-CROMAKALIM], the half-maximal inhibitory concentration (IC50) worked out at 74 nM.

`CC1(C)Oc2ccc(C#N)cc2[C@H](N2CCCC2=O)[C@H]1O` [(-)-CROMAKALIM] yielded an IC50 of 6600 nM.

Staying with this assay, now noted: Rattus norvegicus.
Turning to `CC1(C)C[C@@H](c2cccc[n+]2[O-])c2cc(C#N)ccc2O1`, the IC50 turned out to be 75 nM.

As to `CC1(C)C[C@H](N2CCCC2=O)c2cc(C#N)ccc2O1`, the 50% inhibitory concentration (IC50) was 1150 nM.

Consider `CC1(C)C[C@H](c2cccc[n+]2[O-])c2cc(C#N)ccc2O1`, for which half-maximal inhibition (IC50) required 210 nM.

On to `CC1(C)Oc2ccc(C#N)cc2[C@H](c2cccc[n+]2[O-])[C@H]1O`, for which the half-inhibitory concentration (IC50) was 1200 nM.

With `CC1(C)Oc2ccc(C#N)cc2[C@@H](c2cccc[n+]2[O-])[C@@H]1O`, the IC50 was determined as 100 nM.

Compound `CC1(C)C[C@@H](N2CCCC2=O)c2cc(C#N)ccc2O1` returned a half-inhibitory concentration (IC50) of 520 nM.
